In the CheMixHub viscosity set:

Test: xn = mol fraction of the nth substance listed

CCOC(=O)CCl + Brc1ccccc1
viscosity [mPa·s], 101.3 kPa
Details	x1 = 0.1089	x1 = 0.2034	x1 = 0.3024	x1 = 0.3976	x1 = 0.5011	x1 = 0.6018	x1 = 0.6992	x1 = 0.7963	x1 = 0.8948
298.15 K	1.079	1.079	1.08	1.082	1.085	1.087	1.092	1.096	1.098
303.15 K	1.012	1.011	1.01	1.011	1.012	1.014	1.017	1.018	1.01
308.15 K	0.947	0.943	0.94	0.938	0.938	0.942	0.941	0.941	0.939

CCCCCCCCN(CCCCCCCC)CCCCCCCC + C1CCCCC1
303.15 K, 101 kPa
Details	viscosity [mPa·s]
x2 = 0.1179	6.488
x2 = 0.1582	6.33
x2 = 0.3086	5.344
x2 = 0.4099	4.83
x2 = 0.5029	4.33
x2 = 0.6074	3.468
x2 = 0.7022	2.757
x2 = 0.8023	2.054
x2 = 0.902	1.416

CCCCOCCO + C1CCCCC1
viscosity [mPa·s], 101 kPa
Details	298.15 K	308.15 K
x1 = 0.0557	0.95	0.79
x1 = 0.1501	1.046	0.866
x1 = 0.2504	1.162	0.958
x1 = 0.3543	1.3	1.066
x1 = 0.4488	1.443	1.178
x1 = 0.5025	1.532	1.248
x1 = 0.5493	1.616	1.313
x1 = 0.6485	1.813	1.465
x1 = 0.7494	2.043	1.642
x1 = 0.8511	2.311	1.848
x1 = 0.9556	2.631	2.091

COC(=O)c1ccccc1 + C1CCCCC1
101 kPa, x1 = 0.5996
Details	viscosity [mPa·s]
303.15 K	0.9344
308.15 K	0.8826
313.15 K	0.8403

c1ccc2c(c1)CCCC2 + C1CCCCC1
298.15 K, 101 kPa
Details	viscosity [mPa·s]
x1 = 0.1649	0.9811
x1 = 0.3447	1.127
x1 = 0.5442	1.324
x1 = 0.7597	1.619

C=CC(=O)OC(C)(C)C + C1CCOC1
viscosity [mPa·s], 101 kPa
Details	293.15 K	298.15 K	303.15 K	308.15 K	313.15 K	318.15 K
x2 = 0.0736	0.8645	0.7935	0.7273	0.6717	0.622	0.579
x2 = 0.1489	0.8229	0.757	0.6954	0.6433	0.5964	0.5554
x2 = 0.2121	0.7896	0.7278	0.6699	0.6206	0.5759	0.5365
x2 = 0.2773	0.7568	0.6992	0.6449	0.5984	0.5558	0.5179
x2 = 0.362	0.7164	0.664	0.6143	0.5711	0.5312	0.495
x2 = 0.4382	0.6823	0.6343	0.5886	0.5482	0.5105	0.4758
x2 = 0.5024	0.6551	0.6107	0.5681	0.53	0.494	0.4604
x2 = 0.5815	0.6237	0.5835	0.5446	0.5091	0.475	0.4427
x2 = 0.6532	0.597	0.5605	0.5247	0.4914	0.4589	0.4276
x2 = 0.7268	0.5716	0.5385	0.5058	0.4745	0.4435	0.4131
x2 = 0.7921	0.5505	0.5204	0.4902	0.4607	0.4308	0.4012
x2 = 0.8698	0.5273	0.5006	0.4732	0.4455	0.4168	0.3879
x2 = 0.9352	0.5094	0.4853	0.4601	0.4337	0.4059	0.3776

COC(=O)c1ccccc1 + C1CCOC1
viscosity [mPa·s], 100 kPa
Details	x1 = 0.0689	x1 = 0.1417	x1 = 0.2202	x1 = 0.303	x1 = 0.3932	x1 = 0.493	x1 = 0.6018	x1 = 0.7225	x1 = 0.8535
303.15 K	0.496	0.562	0.638	0.727	0.829	0.951	1.096	1.262	1.446
308.15 K	0.484	0.546	0.616	0.699	0.79	0.904	1.032	1.181	1.343
313.15 K	0.443	0.505	0.567	0.641	0.729	0.83	0.943	1.078	1.22

CCCCCCBr + C1COCCO1
303.15 K, 101.3 kPa
Details	viscosity [mPa·s]
x2 = 0.1105	0.8848
x2 = 0.3021	0.8777
x2 = 0.4972	0.9007
x2 = 0.698	0.947
x2 = 0.8997	1.03

COC(=O)c1ccccc1 + C1COCCO1
viscosity [mPa·s], 100 kPa
Details	x1 = 0.0898	x1 = 0.1468	x1 = 0.228	x1 = 0.3145	x1 = 0.4054	x1 = 0.5056	x1 = 0.6161	x1 = 0.7316	x1 = 0.8597
303.15 K	1.13	1.157	1.198	1.244	1.293	1.352	1.418	1.491	1.573
308.15 K	1.038	1.066	1.106	1.147	1.192	1.246	1.308	1.376	1.449
313.15 K	0.984	1.006	1.04	1.075	1.11	1.157	1.208	1.263	1.324

CCCCCCBr + C=C(C)C(=O)OC
303.15 K, 101 kPa
Details	viscosity [mPa·s]
x2 = 0.1439	0.8087
x2 = 0.2632	0.7611
x2 = 0.4885	0.6895
x2 = 0.5904	0.6665
x2 = 0.6826	0.6354
x2 = 0.8513	0.5709
x2 = 0.9171	0.5459

CCOCCOCCOCC + CC1COC(=O)O1
viscosity [mPa·s], 101.33 kPa
Details	298.15 K	308.15 K	318.15 K
x1 = 0.013	2.474	2.024	1.703
x1 = 0.0542	2.418	1.982	1.658
x1 = 0.1089	2.353	1.923	1.605
x1 = 0.1594	2.288	1.875	1.555
x1 = 0.2136	2.225	1.827	1.506
x1 = 0.257	2.179	1.782	1.466
x1 = 0.3304	2.08	1.702	1.39
x1 = 0.4267	1.94	1.589	1.297
x1 = 0.497	1.833	1.504	1.227
x1 = 0.5874	1.717	1.404	1.152
x1 = 0.6907	1.589	1.306	1.076
x1 = 0.7876	1.474	1.219	1.01
x1 = 0.8704	1.377	1.148	0.957
x1 = 0.9264	1.316	1.101	0.922
x1 = 0.9628	1.289	1.071	0.901

C=CC(=O)OC(C)(C)C + CC#N
viscosity [mPa·s], 100 kPa
Details	293.15 K	298.15 K	303.15 K	308.15 K	313.15 K	318.15 K
x2 = 0.0772	0.8592	0.787	0.72	0.664	0.6141	0.571
x2 = 0.1496	0.8154	0.7472	0.684	0.631	0.5837	0.5427
x2 = 0.2216	0.7728	0.7087	0.6493	0.5994	0.5548	0.5161
x2 = 0.2983	0.7282	0.6684	0.6132	0.5668	0.5252	0.489
x2 = 0.3643	0.6903	0.6344	0.5828	0.5393	0.5003	0.4663
x2 = 0.4345	0.6506	0.5988	0.5511	0.5107	0.4745	0.4426
x2 = 0.5074	0.61	0.5624	0.5187	0.4816	0.4481	0.4186
x2 = 0.5769	0.5719	0.5284	0.4885	0.4544	0.4236	0.3963
x2 = 0.6465	0.5345	0.495	0.459	0.4278	0.3997	0.3746
x2 = 0.7141	0.4991	0.4635	0.4312	0.403	0.3775	0.3546
x2 = 0.7821	0.4645	0.4329	0.4044	0.3793	0.3565	0.3358
x2 = 0.8603	0.4264	0.3994	0.3753	0.354	0.3344	0.3164
x2 = 0.9345	0.3923	0.3699	0.3502	0.3324	0.3162	0.301
